“Also recorded” adds a separate entry of the source. Read-outs that look alike come from different tables or passages of the source.
Columns and labels:
[1] = system: Trichomonas vaginalis G3 trophozoites; settings: for T. vaginalis HTS results / T. vaginalis HTS result in words: 384-well, 25 μL, 10,000 cells/mL, 48 h, biological duplicates; for T. vaginalis HTS results: 10% chromogen, single concentration; for T. vaginalis HTS result in words: hit = >50% inhibition; for T.vaginalis_Absorbance_Rep1: replicate 1, raw absorbance; for T.vaginalis_Absorbance_Rep2: replicate 2, raw absorbance
T. foetus = test: Medium-throughput (MTS) confirmatory dose-response growth assay, T. foetus; format: cell-based, Tritrichomonas foetus; settings: 48 h; for activity against T. foetus in MTS, in words: 10-point dilution series, 96-well; for IC50: 96-well, 10,000 cells/mL in 50 μL, mean ± SEM, >10 = no appreciable activity at highest dose
Method: (§1) For microtiter plate assays, trichomonads were grown in anaerobic conditions within GasPak EZ anaerobe pouches with fresh anaerobic sachets. Working reagent of the chromogen was phenol red (Sigma) in a 1% w/v working solution in phosphate buffered saline (PBS), which was filter sterilised. Chromogen absorbance was monitored at 570 nm on an absorbance microplate reader after plates were allowed to equilibrate in atmospheric conditions at room temperature for at least 5 min.
(§2) After absorbances were measured, data were processed as followed unless indicated otherwise in the text. […] Prism 8 (GraphPad) was used to plot dose-response curves and calculate IC50 values, using a least squares regression, log[inhibitor] vs normalised response (variable slope, four parameters) model. Where replicate plates were used, data for dose-response curves were plotted as the mean±SD of these replicates.
(§3) A selection of 17 compounds assayed in the high-throughput screen (HTS) for T. vaginalis which were available through BioAustralis were obtained for validation of inhibitory in/activity in our optimised medium-throughput format. For this, a 10-point serial dilution was used for drug-susceptibility testing to calculate IC50 values of ‘hit’ compounds. Mtz was used as a positive control. Each screen was performed with 3 technical replicates and a minimum of 2 biological replicates in both T. vaginalis and T. foetus using assay conditions of seeds of 10,000 cells/mL in 50 μL, with absorbance measured at 48 h. Dose response curves and IC50 were calculated for each compound as described above in Section 2.3.

T. vaginalis = test: Medium-throughput (MTS) confirmatory dose-response growth assay, T. vaginalis; format: cell-based, Trichomonas vaginalis; settings: for activity against T. vaginalis in MTS, in words: 10-point dilution series, 96-well; for activity against T. vaginalis in MTS, in words / IC50: 48 h; for IC50: 96-well, 10,000 cells/mL in 50 μL, mean ± SEM, >10 = no appreciable activity at highest dose; for species-specificity T. vaginalis vs T. foetus in MTS: comparison of MTS IC50 in both species
Method: as §1, §2, §3

[2] = system: nontumorigenic neonatal foreskin fibroblast (NFF) cell line
[3] = system: Trichomonas vaginalis G3 trophozoites; test: microbe, parasite or virus in culture; settings: 48 h
[4] = system: Bacillus subtilis (ATCC 6633); format: cell-based; settings: 5 μg/mL
[5] = system: Staphylococcus aureus (ATCC 25923); format: cell-based; settings: 5 μg/mL
[6] = NFF fibroblast screen at 5 µg/mL, A = active, I = inactive
[7] = read-out: T.vaginalis_%inb_Rep1
[8] = read-out: T.vaginalis_%inb_Rep2
[9] = HTS, parasite screen at 1 µg/mL, replicate 1
[10] = HTS, parasite screen at 1 µg/mL, replicate 2
[11] = HTS, parasite screen at 1 µg/mL

| Compound | activity against T. vaginalis in MTS, in words (T. vaginalis) | IC50 (T. vaginalis) | species-specificity T. vaginalis vs T. foetus in MTS (T. vaginalis) | T. vaginalis HTS result in words [1] | IC50 (T. foetus; Tritrichomonas foetus) | IC50 (T. vaginalis; Trichomonas vaginalis) | IC50 (T. foetus) | other results |
| --- | --- | --- | --- | --- | --- | --- | --- | --- |
| COC(=O)c1ccc(CCCCCCCCCCc2ccc(C(=O)OC)nc2)cn1 [Penicolinate A, penicolinate A] | true positives | 2.7 ± 0.9 µM | selective activity against T. vaginalis but not T. foetus |  |  |  |  | T.vaginalis_%inb_Rep1 ([1]; HTS replicate 1, parasite screen 1 µg/mL): 78.85%; T.vaginalis_%inb_Rep2 ([1]; HTS replicate 2, parasite screen 1 µg/mL): 85.50%; activity against T. foetus in MTS, in words (T. foetus): weak activity |
| CCC(=O)CCCCC[C@@H]1NC(=O)[C@H]2CCCCN2C(=O)[C@H]([C@@H](C)CC)NC(=O)[C@H](Cc2cn(OC)c3ccccc23)NC1=O [Apicidin, apicidin] | confirmed active; also recorded: micromolar IC50 values |  |  | inactive in both T. vaginalis HTS replicates | 1.9 ± 0.2 µM | 1.2 ± 0.1 µM |  | T. vaginalis HTS results [1]: I; activity against T. foetus in MTS, in words (T. foetus): micromolar IC50 values |
| Nc1ncnc2c1ccn2[C@@H]1O[C@H](CO)[C@@H](O)[C@H]1O [Tubercidin, tubercidin] | true positives |  | selective activity against T. vaginalis but not T. foetus |  | > 10 µM | 2.4 ± 0.1 µM |  | NFF_Activity [2, 6]: A (active (A) compounds having >25% inhibitory activity); inhibition of growth at 1 µg/mL [3, 7]: 63.8%; inhibition of growth at 1 µg/mL [3, 8]: 76% |
| Cn1ncnc2c(=O)n(C)c(=O)nc1-2 [Toxoflavin, toxoflavin, reference compound] | confirmed active | 3.1 ± 1.7 µM | remained active against both T. vaginalis and T. foetus | partial hits |  |  | 4.1 ± 0.9 µM | T.vaginalis_%inb_Rep1 [1, 9]: 5.72%; T.vaginalis_%inb_Rep2 [1, 10]: 100.00%; NFF_Activity [2, 6]: A (active (A) compounds having >25% inhibitory activity) |
| CCC(=C/[C@H](C)C/C=C/C(C)=C/[C@@H](C)C(=O)[C@@H](C)[C@H](O)[C@@H](C)C/C(C)=C/C(=O)O)/C=C/[C@@H]1OC(=O)C=C[C@@H]1C [Leptomycin B, leptomycin B] | no activity |  |  |  | > 10 µM | > 10 µM |  |  |
| CC(C=CC1OC(=O)C=CC1C)=CC(C)CC=CC(C)=CC(C)C(=O)C(C)C(O)C(C)CC(C)=CC(=O)O (stereo not shown) [Leptomycin A, leptomycin A] | true negatives | > 10 µM |  |  |  |  | > 10 µM | T. vaginalis HTS results [1]: I |
| CO[C@@H]1[C@H](OC(=O)/C=C/C=C/C=C/C=C/C(=O)O)CC[C@]2(CO2)[C@H]1[C@@]1(C)O[C@@H]1CC=C(C)C [Fumagillin, fumagillin, reference compound] | near nanomolar potency |  |  |  | 0.18 ± 0.03 µM | 0.26 ± 0.11 µM |  | antibacterial activity against Bacillus subtilis [4]: no anti-bacterial; T.vaginalis_Absorbance_Rep1 [1, 11]: 1.617; T.vaginalis_Absorbance_Rep2 [1, 11]: 1.25; activity against T. foetus in MTS, in words (T. foetus): near nanomolar potency; cytotoxic activity (NFF) [2]: no anti-bacterial nor cytotoxic activity; activity against T. vaginalis in MTS, in words (T. vaginalis; listed as fumagillin): true positives; inhibition of growth at 1 µg/mL [3, 7]: 48.9%; inhibition of growth at 1 µg/mL [3, 8]: 45.5%; antibacterial activity against Staphylococcus aureus [5]: no anti-bacterial |
| CCC(C)CC1CCC(O)(C(C)(O)C(=O)NC2C(=O)N3NCCCC3C(=O)N(O)C(C)C(=O)NCC(=O)N3NCCCC3C(=O)N(O)C(C)C(=O)OC2C(C)C)OC1C (stereo not shown) [L 156602] | true positives | 0.059 ± 0.004 µM |  |  |  |  | 0.44 ± 0.18 µM |  |
| CC(/C=C/C(=O)NO)=C\[C@@H](C)C(=O)c1ccc(N(C)C)cc1 [Trichostatin A, trichostatin A, reference compound] |  | 0.22 ± 0.06 µM |  | supported the anti-trichomonal activity |  |  | 0.048 ± 0.006 µM | T.vaginalis_%inb_Rep1 [1, 9]: 71.95%; T.vaginalis_%inb_Rep2 [1, 10]: 67.89%; NFF_Activity [2, 6]: I (otherwise these were reported as inactive (I)); activity against T. vaginalis in MTS, in words (T. vaginalis; listed as TSA): true positives |
| COc1ccc2cc1Oc1cc(ccc1O)[C@H](O)[C@]13SS[C@@]4(C(=O)N1C)[C@H](O)C1=COC=C[C@H](OC2=O)[C@H]1N4C3=O [Emestrin, emestrin, reference compound] | inactive | > 10 µM |  | partial hits |  |  | 7.3 ± 3.3 µM | T.vaginalis_%inb_Rep1 [1, 9]: 12.22%; T.vaginalis_Absorbance_Rep1 [1, 11]: 0.943; T.vaginalis_%inb_Rep2 [1, 10]: 63.12%; T.vaginalis_Absorbance_Rep2 [1, 11]: 1.619; activity against T. foetus in MTS, in words (T. foetus): inconsistent between biological replicates; NFF_Activity ([2]; NFF_NS1 screen at 5 µg/mL): A (active (A) compounds having >25% inhibitory activity) |
| CC(C=CC(=O)NOC1OC(CO)C(O)C(O)C1O)=CC(C)C(=O)c1ccc(N(C)C)cc1 (stereo not shown) [Trichostatin C, trichostatin C, reference compound] | true negatives | > 10 µM |  |  |  |  | > 10 µM | T. vaginalis HTS results [1]: I; T.vaginalis_%inb_Rep1 [1, 9]: 10.28%; T.vaginalis_%inb_Rep2 [1, 10]: 10.24% |
| N#Cc1cn([C@@H]2O[C@H](CO)[C@@H](O)[C@H]2O)c2ncnc(N)c12 [Toyocamycin, toyocamycin, reference compound] | true positives |  | remained active against both T. vaginalis and T. foetus | supported the anti-trichomonal activity | 2.4 ± 0.7 µM | 0.3 ± 0.01 µM |  | NFF_Activity [2, 6]: I (otherwise these were reported as inactive (I)); inhibition of growth at 1 µg/mL [3, 7]: 69.9%; inhibition of growth at 1 µg/mL [3, 8]: 77.5% |
| CN1C(=O)[C@]23CC4=CC=C[C@H](O)[C@H]4N2C(=O)[C@@]1(CO)SS3 [Gliotoxin, gliotoxin, reference compound] | no activity |  |  |  | > 10 µM | > 10 µM |  | T.vaginalis_Absorbance_Rep1 [1, 11]: 2.103; T.vaginalis_Absorbance_Rep2 [1, 11]: 1.862; NFF_Activity ([2]; NFF_NS1 screen at 5 µg/mL): A (active (A) compounds having >25% inhibitory activity); inhibition of growth at 1 µg/mL [3, 7]: 71%; inhibition of growth at 1 µg/mL [3, 8]: 78.7% |
| O=[N+]([O-])c1ncc[nH]1 [Azomycin, azomycin] | confirmed active; also recorded: inconsistent activity |  |  | inactive | 8.6 ± 4.3 µM | 9.7 ± 5.5 µM |  | T. vaginalis HTS results [1]: I |
| CSC[S@+]([O-])C[C@H](CO)NC(=O)/C=C/c1c(C)[nH]c(=O)[nH]c1=O [Sparsomycin, sparsomycin] | true positives |  | selective activity against T. vaginalis but not T. foetus |  | > 10 µM | 2.3 µM |  |  |

Source: article PMC7897990, “TriTOX: A novel Trichomonas vaginalis assay platform for high-throughput screening of compound libraries” (International Journal for Parasitology: Drugs and Drug …, 2021)
